Values quoted from earlier work as cited in patent US20100095963A1, “PHARMACEUTICAL COMPOSITIONS” (Schering Corporation, priority 2002, published 2010).

Key:
[1] = not given; remark: listed apart in the source

C[C@@H]1C[C@H]2[C@@H]3CCC4=CC(=O)C=C[C@]4(C)[C@@]3(Cl)[C@@H](O)C[C@]2(C)[C@@]1(OC(=O)c1ccco1)C(=O)CCl [Mometasone furoate, 9,21-Dichloro-11(beta),17-dihydroxy-16(alpha)-methylpregna-1,4-diene-3,20-dione 17-(2 furoate)]
partition coefficient between octanol and water: greater than 5000
solubility in acetone ([1]; acetone): soluble
solubility in chloroform ([1]; chloroform): soluble
solubility in ethanol ([1]; ethanol): slightly soluble
solubility in isopropanol ([1]; isopropanol): slightly soluble
solubility in methanol ([1]; methanol): slightly soluble
solubility in tetrahydrofuran ([1]; tetrahydrofuran): freely soluble
solubility in water ([1]; water): practically insoluble
